Results published in US20250325531A1, “TREATMENT OF SYSTOLIC DYSFUNCTION” (MyoKardia, Inc., priority 2024, published 2025).

Assays:
[1] = tested on: patients with stable HFrEF; experiment: TTE pharmacodynamics in MAD cohorts, patients with stable HFrEF; type: in vivo, human; details: plasma concentration group <2000 ng/mL (n = 30); LS mean difference vs placebo
Protocol: During the study, multiple evaluations were performed that included: serial TTE assessments (11-14 TTEs per patient on Days 1, 2, 3, 4, 7, 9, 10 and 11); PK sampling (PK sample collected concomitantly with every post-randomization echocardiogram); ECGs (on Days 2, 3, 4, 7, 9, 10, 11 and 16); troponin (collected concomitantly with every post-randomization ECG); and safety laboratory assessments. Confined patients underwent continuous telemetry. Holter monitoring was performed in all patients at baseline (Days 1-2) and at the end of double-blind treatment (Days 7-9). Vital signs were collected daily.
PD assessment was done by transthoracic echocardiography as described in Example 1 above. TTE evaluations of LVSV (derived from LVOT-VTI), LVEF, LVFS, SET, and other parameters were PD assessments at predetermined time points. The patients were on bed rest for 10 minutes before the TTEs were obtained. […]
The pharmacodynamic effects of Compound I on echocardiographic markers of cardiac structure and function were analyzed by Compound I plasma concentration groups: <2000 ng/mL (lower concentration group), 2000-3500 ng/ml (medium concentration group) and >3500 ng/ml (higher concentration group) (Table 16) and with PK-PD scatterplots (FIGS. 9A-9C). […]

[2] = tested on: healthy subjects; experiment: Safety and tolerability (AEs, ECG, hs-troponin I) after single ascending doses in healthy volunteers; type: in vivo, human
Protocol: PK and PD data were collected as described herein. […] Changes from Baseline at each postbaseline timepoint were assessed.
A 12-lead electrocardiogram (ECG) was obtained after the subjects had rested in a supine position for at least 10 minutes. […] Digital 12-lead ECG evaluations was performed after 10 minutes of rest at Screening, predose on Day 1 (within 2 hours of dosing), and at various predetermined time points. Each time an ECG was completed, a 10-second paper ECG rhythm strip would also be obtained and maintained in the subject's source documentation.
The ECGs were transmitted to the core ECG laboratory who read the recordings in a blinded manner. An automated methodology was utilized with manual over-reading by a cardiologist. The following intervals were measured: RR, PR, QRS, and QT. Heart rate (HR) was calculated as 60/(RR×1000) (with RR expressed in msec) and rounded to the nearest integer.
Corrected QT interval (QTc) was calculated using the manually over-read QT values per the standard procedures of the central ECG laboratory. Each individual ECG QT value was corrected for HR. The measured QT data were corrected for HR using the Fridericia correction QTcF and the Bazzett method (QTcB) as per the following formulae/method (with QT, RR and QTc expressed in msec): […]
Any abnormal findings judged by the investigator to be clinically important were recorded as adverse events (AEs). AEs were mapped to system organ classes (SOCs) and preferred terms (PTs) using the Medical Dictionary for Regulatory Activities (MedDRA). AEs were monitored during the study and the data analyzed with respect to overall incidence, severity, and potential relationship to study medication. The blinded AEs were presented to the SRC for review after each cohort to aid in their decision on the dose of the subsequent cohort or if the study should be terminated. […] No ECG changes or symptoms were noted.
For the final analysis, the AEs were grouped by treatment group with all of the subjects who received placebo pooled as 1 group. AEs with onset on or after the first dose of study medication, or with an onset before the first dose of study medication that increased in severity on or after the first dose of study medication. Treatment-emergent AEs (defined as AEs starting […]) were summarized for the Safety Analysis Population by MedDRA SOC and PT, and by severity and relationship to treatment. Severe and life-threatening AEs, SAEs, and AEs leading to study withdrawal, if any, were presented in data listings.
Serum samples were drawn for hs-troponin I. Analyses were performed using the Abbott Architect STAT High Sensitivity Troponin I assay.

Cn1cc(S(=O)(=O)[C@@](C)(F)C2CCN(C(=O)Nc3ccon3)CC2)c(C(F)F)n1 [Compound I, (R)-4-(1-((3-(difluoromethyl)-1-methyl-1H-pyrazol-4-yl)sulfonyl)-1-fluoroethyl)-N-(isoxazol-3-yl) piperidine-1-carboxamide]
E/e′ (lateral), mean change from baseline (placebo-corrected) [1]: 0.8 | subjects with AEs related to treatment ([2]; 50 mg (50.0%)): 3 subjects | serious AE, one subject ([2]; 100 mg, 16-22 hours postdosing): short duration of complete AV block | subjects with AEs related to treatment ([2]; 350 mg (50.0%)): 3 subjects | hs-troponin I concentration, one subject ([2]; 525 mg, 6 hours postdose, upper limit of normal 15): 16 ng/L
